Laboratory results: US12648923B2, “Dietary butyrate and its uses” (SOCIETE DES PRODUITS NESTLE S.A., priority 2019, dated 2026)

Molecular target: T1, porcine pancreatic lipase (from pancreatin) (Sus scrofa, UniProt P00591)
T1 construct: pancreatin (Porcine, USP×8, P7585); purchased Sigma-Aldrich P7585; host or cells: porcine pancreas extract (pancreatin)
T1 sequence (P00591 1-450): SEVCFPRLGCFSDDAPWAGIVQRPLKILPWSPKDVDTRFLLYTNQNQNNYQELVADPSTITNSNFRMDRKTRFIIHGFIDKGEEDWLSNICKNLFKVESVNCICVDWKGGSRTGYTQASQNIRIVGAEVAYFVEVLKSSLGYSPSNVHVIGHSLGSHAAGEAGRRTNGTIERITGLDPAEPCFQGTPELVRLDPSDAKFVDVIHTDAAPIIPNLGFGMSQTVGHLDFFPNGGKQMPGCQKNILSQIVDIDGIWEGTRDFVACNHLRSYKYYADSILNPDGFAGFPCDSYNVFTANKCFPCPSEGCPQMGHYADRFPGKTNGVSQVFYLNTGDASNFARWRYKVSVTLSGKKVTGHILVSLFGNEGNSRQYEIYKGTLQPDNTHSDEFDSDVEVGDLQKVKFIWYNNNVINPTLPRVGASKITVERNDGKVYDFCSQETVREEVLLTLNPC
T1 sequence (P02703 23-112 partner): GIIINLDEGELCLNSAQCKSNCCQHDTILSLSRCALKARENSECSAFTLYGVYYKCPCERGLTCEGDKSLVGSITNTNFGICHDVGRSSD
Assay: In vitro digestion in simulated intestinal fluid (SIF), pH-stat
Type: in vitro ADME
Settings: SIF alone; emulsion with 200 mg fat; pH 6.8, 37° C.
Description: 10 wt % oil in water emulsions stabilised by 0.3 wt % polyoxyethylene sorbitan mono-oleate (Tween® 80) were prepared by mixing the Tween 80 into the oil phase at 40° C., then mixing with the water phase using a magnetic stirrer. An emulsion was then created using a Hielscher UP 400S ultrasonic probe homogeniser equipped with a 5 mm diameter rod-like probe by applying 100% amplitude at 100% cycle for 2 minutes whilst the sample was cooled using ice water.
The lipid emulsion (2 mL) containing 200 mg of fat was subjected to gastrointestinal in vitro lipolysis. […]
The intestinal digestion step was performed in the pH stat where the pH was kept constant at 6.8 by addition of NaOH (0.05 M). […] During the intestinal phase of digestion, the kinetics of digestion were followed using a pH-stat (TIM856, Radiometer) technique and expressed as titratable acid (rather than fatty acid) that was calculated by the equation: TA=VNaOH×0:05×1000 […]
Since the digestion of dietary lipids involves lipases of both gastric and intestinal origin, lipid digestibility was assessed using two digestion models i) simulated intestinal fluid (SIF) with porcine pancreatic lipase (PPL) and ii) sequential digestion in simulated gastric fluid (SGF) with rabbit gastric lipase (RGL) followed by simulated intestinal fluid (SIF) with porcine pancreatic lipase (PPL).

initial rate of lipolysis: 223 ± 59 µmol/min
SMILES: CCCC(=O)OCC(COC(=O)CCC)OC(=O)CCC [tributyrin]
